One experiment relates to cisplatin-induced emesis. Description: cisplatin-induced emesis in the ferret. Format: in vivo. The conditions noted are these: for anti-emetic activity: inhibition of cisplatin-induced emesis: cisplatin 200 mg/m^2 i.p., compound 3 mg/kg i.p. at first retch. As to the method: In this model of emesis the onset of retching and vomiting occurs approximately 1 hour after the administration of cisplatin (200 mg/m^2 i.p.). At the first retch in response to cisplatin, the test compound was administered (e.g. i.p., p.o., i.v., s.c., i.c.v.) and its effect on emesis determined by comparison with appropriate controls (e.g. water).

The target of a further experiment is NK1 receptor (Homo sapiens, UniProt P25103). Description: NK1 receptor antagonist activity (enantiomer comparison). The settings on record: relative to the (2S,3S) enantiomer.
NK1 receptor, sequence (P25103 whole entry, species assumed): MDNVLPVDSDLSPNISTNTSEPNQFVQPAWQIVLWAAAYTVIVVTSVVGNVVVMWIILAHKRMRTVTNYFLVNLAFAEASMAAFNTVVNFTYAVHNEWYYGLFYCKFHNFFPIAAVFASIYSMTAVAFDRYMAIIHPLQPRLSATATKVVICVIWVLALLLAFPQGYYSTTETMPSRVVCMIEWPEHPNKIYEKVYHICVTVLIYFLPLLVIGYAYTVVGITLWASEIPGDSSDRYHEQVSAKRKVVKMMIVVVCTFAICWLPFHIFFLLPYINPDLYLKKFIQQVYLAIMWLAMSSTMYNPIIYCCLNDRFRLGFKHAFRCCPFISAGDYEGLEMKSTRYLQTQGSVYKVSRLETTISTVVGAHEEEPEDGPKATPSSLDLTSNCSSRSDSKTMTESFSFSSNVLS
Experiment [1] concerns emesis induced by copper sulphate. Description: copper sulphate-induced emesis, test compound given simultaneously with the emetogen. It is filed as in vivo, ferret. The settings on record: compound 3 mg/kg i.p. simultaneously with copper sulphate 40 mg/kg i.p.
The subject of experiment [2] is emesis induced by morphine. Description: morphine-induced emesis, test compound given simultaneously with the emetogen. Format: in vivo, ferret. The settings on record: compound 3 mg/kg i.p. simultaneously with morphine 0.5 mg/kg s.c.
For experiment [3], the system named is emesis induced by ipecacuanha. Description: ipecacuanha-induced emesis, test compound given simultaneously with the emetogen. Format: in vivo, ferret. The conditions noted are these: compound 3 mg/kg i.p. simultaneously with ipecacuanha 2 mg/kg p.o.
Experiment [4] relates to emesis induced by cyclophosphamide. Description: cyclophosphamide-induced emesis, test compound given simultaneously with the emetogen. The conditions noted are these: compound 3 mg/kg i.p. simultaneously with cyclophosphamide 200 mg/kg i.p. It is filed as in vivo, ferret.

As for `COc1ccccc1CNC1C2CCN(C2)C1C(c1ccccc1)c1ccccc1` (stereo not drawn) [Example 1, (exo,exo)-2-(Diphenylmethyl)-N-[(2-methoxyphenyl)methyl]-1-azabicyclo[2.2.1]heptan-3-amine], the “inhibition of cisplatin-induced emesis” value with cisplatin-induced emesis (compound 5 mg/kg i.p.) is on record as “inhibited”.

For `COc1ccccc1CN[C@H]1CCCN[C@H]1c1ccccc1` (relative stereo) [(2S,3S) enantiomer, cis-3-(2-methoxybenzylamino)-2-phenyl piperidine], the “anti-emetic activity: inhibition of cisplatin-induced emesis” value (“anti-emetic activity: inhibition” for short) with cisplatin-induced emesis (3 mg/kg) is listed as “inhibited”.

With `COc1ccccc1CN[C@H]1CCCN[C@H]1c1ccccc1` (relative stereo) [(2R,3R) enantiomer, cis-3-(2-methoxybenzylamino)-2-phenyl piperidine], the “fold less active as an NK1 receptor antagonist than the (2S,3S) enantiomer” value on NK1 receptor is given as 1000 fold. Further, the “anti-emetic activity: inhibition” value in the experiment with cisplatin-induced emesis (3 mg/kg) is “inactive”.

In the case of `COc1ccccc1CN[C@H]1CCCN[C@H]1c1ccccc1` (racemic) [(±) cis-3-(2-methoxybenzylamino)-2-phenyl piperidine], the “anti-emetic activity against copper sulphate” value in experiment [1] is recorded as “exhibited anti-emetic activity”. The “anti-emetic activity against morphine” value in experiment [2] is recorded as “exhibited anti-emetic activity”. In addition, the “anti-emetic activity against ipecacuanha” value in experiment [3] is on record as “exhibited anti-emetic activity”. Moreover, the “anti-emetic activity: inhibition” value in the experiment on cisplatin-induced emesis was “exhibited anti-emetic activity”. The “anti-emetic activity against cyclophosphamide” value in experiment [4] is “exhibited anti-emetic activity”.

The values above are taken from patent US7342028B2, “Medical use for tachykinin antagonists” (Glaxo Group Limited, priority 1991, dated 2008).
